pIC50, pKi: −log10 of the molar value.
Columns and labels:
[1] = biological target: β-hexosaminidase from human placenta; experiment: Inhibition of β-hexosaminidase from human placenta; assay type: biochemical; details: for pKi: 1L non-competitive, 1D competitive
[2] = biological target: T1, coffee bean α-galactosidase (Coffea arabica, UniProt Q42656); experiment: biochemical
T1 construct: coffee bean α-galactosidase; from tissue; host or cells: coffee bean

[3] = tested on: α-N-acetylgalactosaminidases; experiment: Inhibition of α-N-acetylgalactosaminidases (source not given); assay type: biochemical
[4] = tested on: GalNAcases; details: literature statement; cited from earlier work
[5] = tested on: β-hexosaminidases; details: literature statement; cited from earlier work
[6] = biological target: T2, α-N-acetylgalactosaminidase (GalNAcase) from chicken liver (Gallus gallus, UniProt Q90744); experiment: Inhibition of GalNAcase from chicken liver; assay type: biochemical; details: competitive inhibition
T2 construct: from tissue; host or cells: chicken liver
T2 sequence (Q90744 1-405): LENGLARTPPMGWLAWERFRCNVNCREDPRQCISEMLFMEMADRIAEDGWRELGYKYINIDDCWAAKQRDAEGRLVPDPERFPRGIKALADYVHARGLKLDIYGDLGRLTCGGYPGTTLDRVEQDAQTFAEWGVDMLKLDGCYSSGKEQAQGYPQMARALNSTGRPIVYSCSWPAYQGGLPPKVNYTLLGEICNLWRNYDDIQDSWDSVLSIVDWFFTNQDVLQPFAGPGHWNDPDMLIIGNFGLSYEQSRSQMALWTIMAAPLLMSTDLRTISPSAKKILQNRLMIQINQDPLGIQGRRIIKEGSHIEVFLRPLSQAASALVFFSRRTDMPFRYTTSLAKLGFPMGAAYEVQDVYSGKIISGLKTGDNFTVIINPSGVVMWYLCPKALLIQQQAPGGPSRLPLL

[7] = biological target: β-hexosaminidase from HL-60; experiment: Inhibition of β-hexosaminidase from HL-60; assay type: biochemical
[8] = biological target: β-hexosaminidase from Jack bean; experiment: Inhibition of β-hexosaminidase from Jack bean; assay type: biochemical
[9] = biological target: α-N-acetylgalactosaminidase (GalNAcase) from Charonia lampas; experiment: Inhibition of GalNAcase from Charonia lampas; assay type: biochemical; details: competitive inhibition
[10] = biological target: β-hexosaminidase from bovine kidney; experiment: Inhibition of β-hexosaminidase from bovine kidney; assay type: biochemical

T1 sequence (Q42656 16-378): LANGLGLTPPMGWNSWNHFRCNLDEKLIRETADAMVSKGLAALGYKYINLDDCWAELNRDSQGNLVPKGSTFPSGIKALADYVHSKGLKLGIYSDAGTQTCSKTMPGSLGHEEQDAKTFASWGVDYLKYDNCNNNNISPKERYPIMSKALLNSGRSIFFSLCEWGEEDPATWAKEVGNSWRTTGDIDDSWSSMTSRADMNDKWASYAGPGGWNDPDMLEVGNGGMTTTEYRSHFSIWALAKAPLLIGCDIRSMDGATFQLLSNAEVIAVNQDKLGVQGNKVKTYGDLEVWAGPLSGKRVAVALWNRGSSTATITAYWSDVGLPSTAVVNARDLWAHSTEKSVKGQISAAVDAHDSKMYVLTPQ

Row | pKi [6] | pIC50 [1] | pIC50 [7] | pIC50 [8] | pKi [9] | pIC50 [2] | pIC50 [10] | SMILES | pKi [1] | inhibition of coffee bean α-galactosidase [2] | inhibition of α-N-acetylgalactosaminidases [3] | inhibition of GalNAcases [4] | inhibition of β-hexosaminidases [5]
1 | – | – | – | – | – | – | – | CC(=O)NC1CNC(CO)C(O)C1O [L-DGJNAc 1L] | 2.96 | no inhibition | no inhibition | – | –
2 | – | – | – | – | – | – | – | CC(=O)N[C@H]1c2nc(CC(=O)O)cn2[C@H](CO)[C@H](O)[C@@H]1O [nagstatin 4, nagstatin] | – | – | – | does not inhibit | potent inhibitor
3 | 7.09 | 5.08 | 5.66 | 5.74 | 6.87 | 4.19 | 5.38 | CC(=O)N[C@H]1CN[C@H](CO)[C@H](O)[C@@H]1O [DGJNAc 1D, 2-acetamido-1,2-dideoxy-D-galacto-nojirimycin] | 5.66 | – | – | – | –
